Source: patent EP4667467A1, “PROTAC DEGRADERS OF MLLT1 AND/OR MLLT3” (Dark Blue Therapeutics Ltd, priority 2024, dated 2025)

Molecular target: T1, MLLT1 (Homo sapiens, UniProt Q03111)
T1 construct: endogenous in cells; host or cells: MV4-11 (ATCC CRL-9591)
T1 sequence (Q03111 1-559): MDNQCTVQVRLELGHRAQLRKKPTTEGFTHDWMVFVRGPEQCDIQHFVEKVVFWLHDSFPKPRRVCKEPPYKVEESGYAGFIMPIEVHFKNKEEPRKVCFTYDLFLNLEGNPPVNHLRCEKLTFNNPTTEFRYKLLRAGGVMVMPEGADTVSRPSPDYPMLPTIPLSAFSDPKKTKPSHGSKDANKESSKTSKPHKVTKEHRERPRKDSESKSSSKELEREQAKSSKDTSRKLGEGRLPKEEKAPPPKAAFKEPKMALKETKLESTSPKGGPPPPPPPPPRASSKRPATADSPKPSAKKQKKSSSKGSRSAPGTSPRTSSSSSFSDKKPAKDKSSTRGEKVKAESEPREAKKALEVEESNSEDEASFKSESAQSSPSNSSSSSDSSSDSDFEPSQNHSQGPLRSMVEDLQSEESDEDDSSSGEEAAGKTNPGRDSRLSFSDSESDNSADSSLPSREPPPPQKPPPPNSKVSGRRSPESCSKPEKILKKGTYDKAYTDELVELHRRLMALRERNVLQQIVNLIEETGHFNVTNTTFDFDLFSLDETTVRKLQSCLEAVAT
Assay: MLLT1 Degradation Assay (JESS automated chemiluminescent detection, MV4-11 cells)
Format: cell-based
Settings: 24h, with respect to DMSO control; for MLLT1 % Degradation @ 0.01 µM: 0.01 µM (10 nM) test compound; for MLLT1 % Degradation @ 0.1 µM: 0.1 µM (100 nM) test compound; for MLLT 1 % Degradation @ 1 µM: 1 µM (1000 nM) test compound
Outline: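 MV4-11 cells were treated for 24 h at 37 °C, 5% CO2 with compound at 1000, 100 and 10 nM (0.1% DMSO). MLLT1 was quantified by automated capillary chemiluminescent immunodetection (JESS). Band peak areas were expressed as % degradation relative to DMSO control.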

SMILES	MLLT1 % Degradation @ 0.01 µM	MLLT1 % Degradation @ 0.1 µM	MLLT 1 % Degradation @ 1 µM
CN1CCC[C@@H]1c1cc2cnc(NC(=O)CCCCC3CCN(c4cccc5c4C(=O)N(C4CCC(=O)NC4=O)C5=O)CC3)cc2[nH]1 (stereo partly drawn) [Example 42, 5-(1-(2-(2,6-Dioxopiperidin-3-yl)-1,3-dioxoisoindolin-4-yl)piperidin-4-yl)-N-(2-((R)-1-methylpyrrolidin-2-yl)-1H-pyrrolo[3,2-c]pyridin-6-yl)pentanamide]		B (Category B: 50% ≤ B < 75% degradation)	B (Category B: 50% ≤ B < 75% degradation)
CN1CCC[C@@H]1c1cc2cnc(NC(=O)CCCCCCNc3ccc4c(c3)C(=O)N(C3CCC(=O)NC3=O)C4=O)cc2[nH]1 (stereo partly drawn) [Example 27, 7-{[2-(2,6-dioxopiperidin-3-yl)-1,3-dioxoisoindol-5-yl]amino}-N-{2-[(2R)-1-methylpyrrolidin-2-yl]-1H-pyrrolo[3,2-c]pyridin-6-yl}heptanamide]	C (Category C: 25% ≤ C < 50% degradation)	C (Category C: 25% ≤ C < 50% degradation)	B (Category B: 50% ≤ B < 75% degradation)
CN1CCC[C@@H]1c1[nH]c2cc(NC(=O)CCCCCCNc3cccc4c3C(=O)N(C3CCC(=O)NC3=O)C4=O)ncc2c1Cl (stereo partly drawn) [Example 33, N-{3-chloro-2-[(2R)-1-methylpyrrolidin-2-yl]-1H-pyrrolo[3,2-c]pyridin-6-yl}-7-{[2-(2,6-dioxopiperidin-3-yl)-1,3-dioxoisoindol-4-yl]amino}heptanamide]	B (Category B: 50% ≤ B < 75% degradation)	A (Category A: A ≥ 75% degradation)	A (Category A: A ≥ 75% degradation)

Further lines, with some results ahead:

MLLT1 % Degradation @ 0.01 µM	MLLT1 % Degradation @ 0.1 µM	SMILES	MLLT 1 % Degradation @ 1 µM
A (Category A: A ≥ 75% degradation)	A (Category A: A ≥ 75% degradation)	CN1CCC[C@@H]1c1cc2cnc(NC(=O)c3ccc(OCC#Cc4cccc5c4CN(C4CCC(=O)NC4=O)C5=O)cc3)cc2[nH]1 (stereo partly drawn) [Example 51, 4-((3-(2-(2,6-dioxopiperidin-3-yl)-1-oxoisoindolin-4-yl)prop-2-yn-1-yl)oxy)-N-(2-((R)-1-methylpyrrolidin-2-yl)-1H-pyrrolo[3,2-c]pyridin-6-yl)benzamide]	A (Category A: A ≥ 75% degradation)
A (Category A: A ≥ 75% degradation)	A (Category A: A ≥ 75% degradation)	CN1CCC[C@@H]1c1cc2cnc(NC(=O)c3ccc(-c4cnn(CCCC5CCN(c6cccc(C(=O)N[C@H]7CCC(=O)NC7=O)n6)CC5)c4)cc3)cc2[nH]1 [Example 60, N-((S)-2,6-dioxopiperidin-3-yl)-6-(4-(3-(4-(4-((2-((R)-1-methylpyrrolidin-2-yl)-1H-pyrrolo[3,2-c]pyridin-6-yl)carbamoyl)phenyl)-1H-pyrazol-1-yl)propyl)piperidin-1-yl)picolinamide]	A (Category A: A ≥ 75% degradation)
A (Category A: A ≥ 75% degradation)	A (Category A: A ≥ 75% degradation)	CN1CCC[C@@H]1c1cc2cnc(NC(=O)c3ccc(-c4cnn(CCCCC#Cc5cccc6c5CN(C5CCC(=O)NC5=O)C6=O)c4)cc3)cc2[nH]1 (stereo partly drawn) [Example 59, 4-(1-(6-(2-(2,6-dioxopiperidin-3-yl)-1-oxoisoindolin-4-yl)hex-5-yn-1-yl)-1H-pyrazol-4-yl)-N-(2-((R)-1-methylpyrrolidin-2-yl)-1H-pyrrolo[3,2-c]pyridin-6-yl)benzamide]	B (Category B: 50% ≤ B < 75% degradation)
